Laboratory results from patent US20200368235A1, “IBRUTINIB COMBINATION THERAPY” (Pharmacyclics LLC, priority 2013, published 2020).

Columns and labels:
Format in all cases: cell-based
[1] = tested on: 17 Diffuse Large B Cell Lymphoma (DLBCL) cell lines; experiment: High throughput screen of ibrutinib combinations, growth inhibition by ATP-lite at 72h; conditions: for synergy in combination with JNJ-02 (ibrutinib): synergy score heat map across DLBCL cell lines
Method: (§1) A high throughput screen of 17 Diffuse Large B Cell Lymphoma (DLBCL) cell lines was conducted for their response to Ibrutinib in combination with 99 anti-cancer agents selected from among standard-of-care and emerging therapeutics and targeted agents. The goal of the project was to identify and quantify specific synergies with Ibrutinib to identify pathways that contribute to clinical response. Examples of therapeutics tested included first-line DLBCL therapeutics: RCHOP (Rituximab, Cyclophosphamide, Doxorubicin, Vincristine, Prednisone) or EPOCH (+Etoposide) and Second-line therapeutics: Dexamethasone, Prednisone, Etoposide, Vincristine, Gemcitabine, Carboplatin, Ifosfamide, Bendamustine, Cyclophosphamide, Rituximab, Lenalidomide, and Anthracycline.
(§2) The 17 DLBCL cell lines tested were DB, DOHH-2, HBL-1, HT, NU-DHL-1, OCI-Lyl, OCI-Ly10, OCI-Ly18, OCI-Ly19, OCI-Ly3, OCI-Ly7, Pfeiffer, SU-DHL-5, SU-DHL-6, SU-DHL-8, TMD8 and Toledo. Eight of the cell lines were screened in human MSC-conditioned medium (hMSC-CM) and nine of the cell lines were screened with hMSC-CM+1 ug/ml each of anti-IgM and anti-IgG. The assay was performed in a 384-well format (6×6 HFDR format) with intra-plate replicates (Ibrutinib n=4; enhancers n=2; combination n=1), inter-plate replicates (n=3) and 20 self-crosses. The dose-response matrix screening was designed to detect both types of multi-target interaction, potency shifts or efficacy boosts.
(§3) The cells were seeded 24h before dosing. Cells were dosed with ibrutinib (JNJ-02) and the test compounds at varying concentrations as depicted in FIGS. 18-39G. At T0 (0h after dosing) and T72 (72h after dosing) ATP-lite raw values were obtained. Growth inhibition of the cell culture was measured as follows:
(§4) Measure untreated at time 0 (V0) (the time at which drugs are added), treated (T) and untreated (V) (at assay end point (72h).
(§5) 100% (Total growth inhibition)—treatment viability signal and 0h vehicle viability signal are matched. (T=V0)
(§6) 200% (complete kill)—treatment viability signal is 0. (T=0)
(§7) The growth inhibition measure is sensitive to the cell doubling time (e.g., it measures the fraction of (net) growth inhibition during the assay period). Growth inhibition gives additional valuable information. For example, 0%-100% (growth inhibition) represents % reduction in net increase in the cells with vehicle during drug incubation period, 100% represents no net increase in viability signal at T72 and T0) (i.e., cytostatic) and 100%-200% (killing zone) represents cytotoxic effects.

[2] = tested on: DOHH-2 cell line; experiment: High throughput combination screen, growth inhibition (ATP-lite)
Method: as §1, §2, §3, §4, §5, §6, §7

[3] = tested on: OCI-Ly18 cell line; experiment: as above
Method: as §1, §2, §3, §4, §5, §6, §7

[4] = tested on: TMD8 cell line; experiment: as above
Method: as §1, §2, §3, §4, §5, §6, §7

CN(C)CC[C@H](CSc1ccccc1)Nc1ccc(S(=O)(=O)NC(=O)c2ccc(N3CCN(Cc4ccccc4-c4ccc(Cl)cc4)CC3)cc2)cc1[N+](=O)[O-] [ABT-737]
synergy in combination with JNJ-02 (ibrutinib) [1]: strong synergy and good breadth of activity

CC(C)c1c(C(=O)Nc2ccccc2)c(-c2ccccc2)c(-c2ccc(F)cc2)n1CC[C@@H](O)C[C@@H](O)CC(=O)O [Atrovastatin]
synergy in combination with JNJ-02 (ibrutinib) [1]: synergizes

CCOC(=O)C1=C(N)Oc2ccc(Br)cc2C1C(C#N)C(=O)OCC (stereo not drawn) [HA14-1]
synergy in combination with JNJ-02 (ibrutinib) [1]: modest synergy in selected cell lines

O=C(c1ccc(Nc2nccc(-c3cc4ccccc4s3)n2)cc1)N1CCC(N2CCCC2)CC1 [IKK inhibitor VII]
synergy in combination with JNJ-02 (ibrutinib) [1]: strong synergy and good breadth of activity

Nc1cccc2c1CN(C1CCC(=O)NC1=O)C2=O (stereo not drawn) [Lenalidomide]
activity as a single agent ([1]; single agent, cell line not given): not active as a single agent | synergy in combination with JNJ-02 (ibrutinib) [1]: synergized | synergy with JNJ-02 (ibrutinib) ([2]; combination with ibrutinib): does not show synergy | activity as a single agent ([2]; single agent): active as a single agent | synergy with JNJ-02 (ibrutinib) ([3]; combination with ibrutinib): does not show synergy | activity as a single agent ([3]; single agent): active as a single agent | synergy with JNJ-02 (ibrutinib) ([4]; combination with ibrutinib): synergizes | activity as a single agent ([4]; single agent): not active as a single agent

C[C@]12C=CC(=O)C=C1CC[C@@H]1[C@@H]2[C@@H](O)C[C@@]2(C)[C@H]1CC[C@]2(O)C(=O)CO [prednisolone]
synergy in combination with JNJ-02 (ibrutinib) [1]: strong synergy and good breadth of activity

rituximab
synergy in combination with JNJ-02 (ibrutinib) [1]: Synergy is observed

B1: siltuximab (antibody, chains of the INN, looked up, V domains shown)
VH: EVQLVESGGKLLKPGGSLKLSCAASGFTFSSFAMSWFRQSPEKRLEWVAEISSGGSYTYYPDTVTGRFTISRDNAKNTLYLEMSSLRSEDTAMYYCARGLWGYYALDYWGQGTSVTVSS
VL: QIVLIQSPAIMSASPGEKVTMTCSASSSVSYMYWYQQKPGSSPRLLIYDTSNLASGVPVRFSGSGSGTSYSLTISRMEAEDAATYYCQQWSGYPYTFGGGTKLEIK
synergy in combination with JNJ-02 (ibrutinib) [1]: not
